The nature of data set [1]: MTD stated with the xenograft dosing. As to conditions: CD1 Nude, mouse, in vivo; mice. Here is the method: Treatment with test agents was initiated when the mean individual tumour volume exceeded 1,000 mm^3. The mice were dosed at day 11 and day 22—([…] 10 mg/kg, VePesid 5 mg/kg, MTD […] 22 mg/kg (a non toxic form of 17AAG which can be tolerated at much higher doses) MTD VePesid 70 mg/kg.

The test system of the next data set is E.coli JGT11 (htpG null). Put plainly: Agar sensitivity plates, htpG null mutant. In kind it is cell-based. Here is the method: (§1) 200 μl of an overnight culture of E.coli strains was spread over the surface of a LB plate. The plates were incubated for three hours at 37° C., and the discs (50 μl of drug) placed onto the plates that were then incubated at 37° C. overnight.
(§2) The plates were photographed the following day with Fluor-S™ Quantity 1 program and the results are illustrated in FIG. 18.
(§3) The inhibition of bacterial cell growth was assessed by examining the zones of inhibition around each disc containing the topo II inhibitor.

In the next data set the test system is E.coli MC4100. The experiment in a line: Agar sensitivity plates, parental strain. In kind it is cell-based. As to conditions: for zone of inhibition: parental strain MC4100. Here is the method: as §1, §2, §3
The target in the next data set is HtpG (Escherichia coli, UniProt P0A6Z3). As to conditions: in vitro; cited from earlier work.

Molecules are shown by their SMILES.

We go through three molecules from patent publication US20050245466A1, “Use of topoisomerase inhibitors and heat shock protein 90 inhibitors for use in chemotherapy” (THE UNIVERSITY OF LIVERPOOL, priority 2002, published 2005).

HtpG, sequence (P0A6Z3 whole entry): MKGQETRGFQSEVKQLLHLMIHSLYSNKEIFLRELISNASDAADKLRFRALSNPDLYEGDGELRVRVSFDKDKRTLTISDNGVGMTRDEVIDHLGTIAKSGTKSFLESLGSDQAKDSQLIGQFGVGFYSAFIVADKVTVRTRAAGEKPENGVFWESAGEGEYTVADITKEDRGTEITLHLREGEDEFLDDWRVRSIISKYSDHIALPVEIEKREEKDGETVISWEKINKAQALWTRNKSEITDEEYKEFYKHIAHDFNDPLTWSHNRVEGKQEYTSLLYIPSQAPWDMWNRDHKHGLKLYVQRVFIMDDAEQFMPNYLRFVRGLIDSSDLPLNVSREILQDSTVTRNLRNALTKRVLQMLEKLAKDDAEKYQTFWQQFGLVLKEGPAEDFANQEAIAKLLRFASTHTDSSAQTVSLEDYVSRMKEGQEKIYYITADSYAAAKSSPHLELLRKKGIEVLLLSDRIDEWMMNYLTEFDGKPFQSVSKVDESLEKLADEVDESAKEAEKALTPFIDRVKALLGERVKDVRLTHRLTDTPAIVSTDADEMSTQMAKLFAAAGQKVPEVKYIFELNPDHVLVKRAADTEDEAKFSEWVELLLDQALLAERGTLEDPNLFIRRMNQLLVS

`COc1cc([C@@H]2c3cc4c(cc3[C@@H](O[C@@H]3O[C@@H]5CO[C@@H](C)O[C@H]5[C@H](O)[C@H]3O)[C@H]3COC(=O)[C@H]23)OCO4)cc(OC)c1O` [VePesid, Etoposide]: in data set [1], the MTD came out at 70 mg/kg.
For `O=C(O)c1cn(C2CC2)c2cc(N3CCNCC3)c(F)cc2c1=O` [Ciprofloxacin], in the data set on E.coli JGT11 (htpG null) (JGT11, even at concentrations as low as 0.01 μM), the “effect on growth versus parental strain (FIG. 18)” value was “significantly greater effect”. Further, the “inhibition of growth (zones of inhibition) versus MC4100” value in the data set with E.coli JGT11 (htpG null) (htpG null mutant, discs in the range of 0.6-0.01 μM) is recorded as “increased inhibition”. In addition, in the data set with E.coli MC4100 (MC4100, discs in the range of 0.6-0.01 μM), the “inhibition of growth (zones of inhibition)” value is “some inhibition of growth”. Also, the zone of inhibition result with E.coli MC4100 (0.025 μM) was “no zone of inhibition”; with E.coli MC4100 (0.1 μM), “reduced zone of inhibition”.
On to `COC1=C2C[C@@H](C)C[C@H](OC)[C@H](O)[C@@H](C)/C=C(\C)[C@H](OC(N)=O)[C@@H](OC)/C=C\C=C(/C)C(=O)NC(=CC1=O)C2=O` [Geldanamycin], for which the MTD in data set [1] is 22 mg/kg. Further, on HtpG, the “activity of HtpG” value is “inhibits”.
